Results from ChEMBL document CHEMBL1143804, “Synthesis and antibacterial evaluation of 1beta-methyl-2-[5-(1-methoxyimino-2-substituted sulfonamide ethyl)pyrrolidin-3-ylthio]carbapenems and their related compounds” (2007).
≈ marks a conversion by molar mass, not a printed value.

What was measured:
[1] = system: Escherichia coli; experiment: Antibacterial activity against Escherichia coli 086; assay type: functional
[2] = Antibacterial activity against Salmonella oranienberg; assay type: functional, Salmonella enterica subsp. enterica serovar Oranienburg; settings: Salmonella enterica
[3] = system: Staphylococcus aureus; experiment: Antibacterial activity against Staphylococcus aureus 503; assay type: functional
[4] = system: Salmonella typhimurium; experiment: Antibacterial activity against Salmonella Typhimurium; assay type: functional, Salmonella enterica subsp. enterica serovar Typhimurium; settings: Salmonella enterica
[5] = system: Pseudomonas aeruginosa; experiment: Antibacterial activity against Pseudomonas aeruginosa 77/2; assay type: functional
[6] = system: Enterobacter cloacae; experiment: Antibacterial activity against Enterobacter cloacae 417; assay type: functional
[7] = system: Proteus vulgaris; experiment: Antibacterial activity against Proteus vulgaris 868; assay type: functional
[8] = Antibacterial activity against Salmonella give; assay type: functional, Salmonella enterica subsp. enterica serovar Give; settings: Salmonella enterica
[9] = system: Escherichia coli; experiment: Antibacterial activity against Escherichia coli 0114; assay type: functional
[10] = system: Pasteurella multocida; experiment: Antibacterial activity against Pasteurella multocida; assay type: functional
[11] = system: Pseudomonas aeruginosa; experiment: Antibacterial activity against Pseudomonas aeruginosa 880/2; assay type: functional
[12] = system: Salmonella; experiment: Antibacterial activity against Salmonella orion; assay type: functional
[13] = system: Staphylococcus aureus; experiment: Antibacterial activity against Staphylococcus aureus SG511; assay type: functional
[14] = system: Staphylococcus aureus; experiment: Antibacterial activity against Staphylococcus aureus giorgio; assay type: functional
[15] = system: Salmonella typhi; experiment: Antibacterial activity against Salmonella typhi; assay type: functional, Salmonella enterica subsp. enterica serovar Typhi; settings: Salmonella enterica
[16] = system: Escherichia coli; experiment: Antibacterial activity against Escherichia coli TEM; assay type: functional
[17] = system: Micrococcus luteus; experiment: Antibacterial activity against Micrococcus luteus ATCC 9341; assay type: functional
[18] = system: Streptococcus agalactiae; experiment: Antibacterial activity against Streptococcus agalactiae B; assay type: functional
[19] = system: Serratia marcescens; experiment: Antibacterial activity against Serratia marcescens 14273; assay type: functional
[20] = system: Escherichia coli; experiment: Antibacterial activity against Escherichia coil V6311/65; assay type: functional
[21] = system: Bacillus subtilis; experiment: Antibacterial activity against Bacillus subtilts ATCC 6633; assay type: functional
[22] = system: Klebsiella aerogenes; experiment: Antibacterial activity against Klebsiella aerogenes 1522E; assay type: functional
[23] = system: Escherichia coli; experiment: Antibacterial activity against Escherichia coil 1507; assay type: functional
[24] = system: Staphylococcus aureus; experiment: Antibacterial activity against Staphylococcus aureus 209P; assay type: functional
[25] = system: Proteus mirabilis; experiment: Antibacterial activity against Proteus mirabilis 174/3; assay type: functional
[26] = system: Trueperella pyogenes; experiment: Antibacterial activity against Corynebacterium pyogenes; assay type: functional
[27] = system: Burkholderia cepacia; experiment: Antibacterial activity against Pseudomonas cepacia; assay type: functional
[28] = system: Klebsiella pneumoniae; experiment: Antibacterial activity against Klebsiella pneumonise 477; assay type: functional
[29] = system: Corynebacterium diphtheriae; experiment: Antibacterial activity against Corynebacterium diphtheriae; assay type: functional
[30] = system: Pseudomonas aeruginosa; experiment: Antibacterial activity against Pseudomonas aeruginosa 110/2; assay type: functional
[31] = system: Priestia megaterium; experiment: Antibacterial activity against Bacillus megaterium; assay type: functional
[32] = system: Pseudomonas aeruginosa; experiment: Antibacterial activity against Pseudomonas aeruginosa 9027; assay type: functional
[33] = system: Serratia marcescens; experiment: Antibacterial activity against Serratia marcescens 370; assay type: functional
[34] = system: Streptococcus pyogenes; experiment: Antibacterial activity against Streptococcus pyogenes 308A; assay type: functional
[35] = system: Providencia rettgeri; experiment: Antibacterial activity against Proteus rettgeri 937; assay type: functional
[36] = system: Proteus mirabilis; experiment: Antibacterial activity against Proteus mirabilis 112/3; assay type: functional
[37] = system: Serratia marcescens; experiment: Antibacterial activity against Serratia marcescens 6093; assay type: functional
[38] = system: Enterococcus durans; experiment: Antibacterial activity against Streptococcus durans D; assay type: functional
[39] = system: Escherichia coli; experiment: Antibacterial activity against Escherichia coli DC2; assay type: functional
[40] = system: Enterococcus faecium; experiment: Antibacterial activity against Streptococcus faecium 77A; assay type: functional
[41] = system: Staphylococcus aureus; experiment: Antibacterial activity against Staphylococcus aureus 285; assay type: functional
[42] = system: Enterobacter cloacae; experiment: Antibacterial activity against Enterobacter cloacae; assay type: functional
[43] = system: Escherichia coli; experiment: Antibacterial activity against Escherichia coli 0126; assay type: functional
[44] = system: Enterobacter cloacae; experiment: Antibacterial activity against Enterobactor cloacae 1321E; assay type: functional
[45] = system: Streptococcus pyogenes; experiment: Antibacterial activity against Streptococcus pyogenes 77A; assay type: functional
[46] = system: Providencia rettgeri; experiment: Antibacterial activity against Proteus rettgeri 936; assay type: functional

CNS(=O)(=O)NC/C(=N\OC)[C@@H]1C[C@H](SC2=C(C(=O)O)N3C(=O)[C@H]([C@@H](C)O)[C@H]3[C@H]2C)CN1
MIC [1]: 0.03 µg/mL (≈ 0.061 µM) | MIC [2]: 0.2 µg/mL (≈ 0.407 µM) | MIC [3]: 0.03 µg/mL (≈ 0.061 µM) | MIC [4]: 0.025 µg/mL (≈ 0.0509 µM) | MIC [5]: 1.56 µg/mL (≈ 3.17 µM) | MIC [6]: 0.05 µg/mL (≈ 0.102 µM) | MIC [7]: 0.4 µg/mL (≈ 0.814 µM) | MIC [8]: 0.1 µg/mL (≈ 0.203 µM) | MIC [9]: 0.03 µg/mL (≈ 0.061 µM) | MIC [10]: 0.05 µg/mL (≈ 0.102 µM) | MIC [11]: 0.4 µg/mL (≈ 0.814 µM) | MIC [12]: 0.1 µg/mL (≈ 0.203 µM) | MIC [13]: 0.049 µg/mL (≈ 0.0997 µM) | MIC [14]: 0.03 µg/mL (≈ 0.061 µM) | MIC [15]: 0.03 µg/mL (≈ 0.061 µM) | MIC [16]: 0.025 µg/mL (≈ 0.0509 µM) | MIC [17]: 0.01 µg/mL (≈ 0.0203 µM) | MIC [18]: 0.03 µg/mL (≈ 0.061 µM) | MIC [19]: 0.4 µg/mL (≈ 0.814 µM) | MIC [20]: 0.05 µg/mL (≈ 0.102 µM) | MIC [21]: 0.03 µg/mL (≈ 0.061 µM) | MIC [22]: 0.025 µg/mL (≈ 0.0509 µM) | MIC [23]: 0.05 µg/mL (≈ 0.102 µM) | MIC [24]: 0.03 µg/mL (≈ 0.061 µM) | MIC [25]: 0.2 µg/mL (≈ 0.407 µM) | MIC [26]: 0.01 µg/mL (≈ 0.0203 µM) | MIC [27]: 0.4 µg/mL (≈ 0.814 µM) | MIC [28]: 0.03 µg/mL (≈ 0.061 µM) | MIC [29]: 0.01 µg/mL (≈ 0.0203 µM) | MIC [30]: 0.8 µg/mL (≈ 1.63 µM) | MIC [31]: 0.05 µg/mL (≈ 0.102 µM) | MIC [32]: 1.56 µg/mL (≈ 3.17 µM) | MIC [33]: 0.2 µg/mL (≈ 0.407 µM) | MIC [34]: < 0.01 µg/mL | MIC [35]: 0.4 µg/mL (≈ 0.814 µM) | MIC [36]: 0.2 µg/mL (≈ 0.407 µM) | MIC [37]: 0.2 µg/mL (≈ 0.407 µM) | MIC [38]: 0.1 µg/mL (≈ 0.203 µM) | MIC [39]: 0.013 µg/mL (≈ 0.0264 µM) | MIC [40]: < 0.01 µg/mL | MIC [41]: 0.098 µg/mL (≈ 0.199 µM) | MIC [42]: 0.01 µg/mL (≈ 0.0203 µM) | MIC [43]: 0.03 µg/mL (≈ 0.061 µM) | MIC [44]: 0.013 µg/mL (≈ 0.0264 µM) | MIC [45]: < 0.01 µg/mL | MIC [46]: 0.4 µg/mL (≈ 0.814 µM)

CCS(=O)(=O)NC/C(=N\OC)[C@@H]1C[C@H](SC2=C(C(=O)O)N3C(=O)[C@H]([C@@H](C)O)[C@H]3[C@H]2C)CN1
MIC [4]: 1.56 µg/mL (≈ 3.18 µM) | MIC [13]: 0.195 µg/mL (≈ 0.397 µM) | MIC [16]: 0.195 µg/mL (≈ 0.397 µM) | MIC [22]: 0.781 µg/mL (≈ 1.59 µM) | MIC [32]: 12.5 µg/mL (≈ 25.5 µM) | MIC [34]: 0.195 µg/mL (≈ 0.397 µM) | MIC [39]: 0.391 µg/mL (≈ 0.797 µM) | MIC [41]: 0.781 µg/mL (≈ 1.59 µM) | MIC [44]: 0.781 µg/mL (≈ 1.59 µM) | MIC [45]: 0.098 µg/mL (≈ 0.2 µM)

CO/N=C(\CNC(C)=O)[C@@H]1C[C@H](SC2=C(C(=O)O)N3C(=O)[C@H]([C@@H](C)O)[C@H]3[C@H]2C)CN1
MIC [4]: 0.049 µg/mL (≈ 0.111 µM) | MIC [13]: 0.049 µg/mL (≈ 0.111 µM) | MIC [16]: 0.025 µg/mL (≈ 0.0568 µM) | MIC [22]: 0.049 µg/mL (≈ 0.111 µM) | MIC [32]: 1.56 µg/mL (≈ 3.54 µM) | MIC [34]: 0.013 µg/mL (≈ 0.0295 µM) | MIC [39]: 0.025 µg/mL (≈ 0.0568 µM) | MIC [41]: 0.098 µg/mL (≈ 0.222 µM) | MIC [44]: 0.013 µg/mL (≈ 0.0295 µM) | MIC [45]: < 0.01 µg/mL

CCCNS(=O)(=O)NC/C(=N\OC)[C@@H]1C[C@H](SC2=C(C(=O)O)N3C(=O)[C@H]([C@@H](C)O)[C@H]3[C@H]2C)CN1
MIC [4]: 0.098 µg/mL (≈ 0.189 µM) | MIC [13]: 0.195 µg/mL (≈ 0.375 µM) | MIC [16]: 0.195 µg/mL (≈ 0.375 µM) | MIC [22]: 0.195 µg/mL (≈ 0.375 µM) | MIC [32]: 12.5 µg/mL (≈ 24.1 µM) | MIC [34]: 0.049 µg/mL (≈ 0.0943 µM) | MIC [39]: 0.098 µg/mL (≈ 0.189 µM) | MIC [41]: 0.195 µg/mL (≈ 0.375 µM) | MIC [44]: 0.195 µg/mL (≈ 0.375 µM) | MIC [45]: 0.025 µg/mL (≈ 0.0481 µM)

C[C@@H](O)[C@H]1C(=O)N2C(C(=O)O)=C(S[C@@H]3CN[C@H](C(=O)N(C)C)C3)[C@H](C)[C@H]12 [MEROPENEM]
MIC [1]: 0.05 µg/mL (≈ 0.13 µM) | MIC [2]: 0.05 µg/mL (≈ 0.13 µM) | MIC [3]: 0.05 µg/mL (≈ 0.13 µM) | MIC [4]: 0.025 µg/mL (≈ 0.0652 µM) | MIC [5]: 0.8 µg/mL (≈ 2.09 µM) | MIC [6]: 0.01 µg/mL (≈ 0.0261 µM) | MIC [7]: 0.1 µg/mL (≈ 0.261 µM) | MIC [8]: 0.03 µg/mL (≈ 0.0782 µM) | MIC [9]: 0.03 µg/mL (≈ 0.0782 µM) | MIC [10]: 0.05 µg/mL (≈ 0.13 µM) | MIC [11]: 0.2 µg/mL (≈ 0.522 µM) | MIC [12]: 0.1 µg/mL (≈ 0.261 µM) | MIC [13]: 0.098 µg/mL (≈ 0.256 µM) | MIC [14]: 0.1 µg/mL (≈ 0.261 µM) | MIC [15]: 0.01 µg/mL (≈ 0.0261 µM) | MIC [16]: 0.025 µg/mL (≈ 0.0652 µM) | MIC [17]: 0.05 µg/mL (≈ 0.13 µM) | MIC [18]: 0.05 µg/mL (≈ 0.13 µM) | MIC [19]: 0.2 µg/mL (≈ 0.522 µM) | MIC [20]: 0.01 µg/mL (≈ 0.0261 µM) | MIC [21]: 0.05 µg/mL (≈ 0.13 µM) | MIC [22]: 0.049 µg/mL (≈ 0.128 µM) | MIC [23]: 0.03 µg/mL (≈ 0.0782 µM) | MIC [24]: 0.1 µg/mL (≈ 0.261 µM) | MIC [25]: 0.1 µg/mL (≈ 0.261 µM) | MIC [26]: 0.03 µg/mL (≈ 0.0782 µM) | MIC [27]: 0.4 µg/mL (≈ 1.04 µM) | MIC [28]: 0.05 µg/mL (≈ 0.13 µM) | MIC [29]: 0.05 µg/mL (≈ 0.13 µM) | MIC [30]: 0.4 µg/mL (≈ 1.04 µM) | MIC [31]: 0.05 µg/mL (≈ 0.13 µM) | MIC [32]: 0.195 µg/mL (≈ 0.509 µM) | MIC [33]: 0.05 µg/mL (≈ 0.13 µM) | MIC [34]: 0.013 µg/mL (≈ 0.0339 µM) | MIC [35]: 0.05 µg/mL (≈ 0.13 µM) | MIC [36]: 0.1 µg/mL (≈ 0.261 µM) | MIC [37]: 0.05 µg/mL (≈ 0.13 µM) | MIC [38]: 0.8 µg/mL (≈ 2.09 µM) | MIC [39]: 0.025 µg/mL (≈ 0.0652 µM) | MIC [40]: 0.01 µg/mL (≈ 0.0261 µM) | MIC [41]: 0.098 µg/mL (≈ 0.256 µM) | MIC [42]: 0.03 µg/mL (≈ 0.0782 µM) | MIC [43]: 0.05 µg/mL (≈ 0.13 µM) | MIC [44]: 0.025 µg/mL (≈ 0.0652 µM) | MIC [45]: < 0.01 µg/mL | MIC [46]: 0.1 µg/mL (≈ 0.261 µM)
